Assay results from ChEMBL document CHEMBL5131426, “Novel hydrazone derivatives of N-amino-11-azaartemisinin with high order of antimalarial activity against multidrug-resistant Plasmodium yoelii nigeriensis in Swiss mice via intramuscular route” (Bioorg Med Chem Lett, 2022).

Key:
[1] = system: Plasmodium yoelii nigeriensis; assay: Antimalarial activity against multidrug-resistant Plasmodium yoelii nigeriensis infected in Swiss mouse assessed as inhibition of parasitemia at 24 mg/kg, po for 4 days measured on day 4 relative to control; type: functional; details: 96 h, time 4 day
[2] = system: Plasmodium yoelii nigeriensis; assay: Antimalarial activity against multidrug-resistant Plasmodium yoelii nigeriensis infected in Swiss mouse assessed as inhibition of parasitemia at 12 mg/kg, IM for 4 days measured on day 4 relative to control; type: functional; details: 96 h, time 4 day
[3] = Toxicity in Swiss mouse infected with multidrug-resistant Plasmodium yoelii nigeriensis assessed as animal dead at 12 mg/kg, IM for 4 days measured on day 28; type: organism-based; details: in vivo, 96 h, time 4 day
[4] = Toxicity in Swiss mouse infected with multidrug-resistant Plasmodium yoelii nigeriensis assessed as animal survival at 24 mg/kg, po for 4 days measured on day 28; type: organism-based; details: in vivo, time 4 day; for Activity: po, 24 mg/kg, 96 h
[5] = Toxicity in Swiss mouse infected with multidrug-resistant Plasmodium yoelii nigeriensis assessed as animal survival at 12 mg/kg, IM for 4 days measured on day 28; type: organism-based; details: in vivo, time 4 day; for survival at 96 h: Swiss, read-out: Activity
[6] = system: Plasmodium yoelii nigeriensis; assay: Antimalarial activity against multidrug-resistant Plasmodium yoelii nigeriensis infected in Swiss mouse assessed as inhibition of parasitemia at 12 mg/kg, po for 4 days measured on day 4 relative to control; type: functional; details: 96 h, time 4 day
[7] = Toxicity in Swiss mouse infected with multidrug-resistant Plasmodium yoelii nigeriensis assessed as animal dead at 12 mg/kg, po for 4 days measured on day 28; type: organism-based; details: in vivo, 96 h, time 4 day
[8] = system: Plasmodium yoelii nigeriensis; assay: Antimalarial activity against multidrug-resistant Plasmodium yoelii nigeriensis infected in Swiss mouse assessed as inhibition of parasitemia at 48 mg/kg, po for 4 days measured on day 4 relative to control; type: functional; details: 96 h, time 4 day
[9] = system: Plasmodium yoelii nigeriensis; assay: Antimalarial activity against multidrug-resistant Plasmodium yoelii nigeriensis infected in Swiss mouse assessed as inhibition of parasitemia at 48 mg/kg, IM for 4 days measured on day 4 relative to control; type: functional; details: 96 h, time 4 day
[10] = system: Plasmodium yoelii nigeriensis; assay: Antimalarial activity against multidrug-resistant Plasmodium yoelii nigeriensis infected in Swiss mouse assessed as inhibition of parasitemia at 24 mg/kg, IM for 4 days measured on day 4 relative to control; type: functional; details: 96 h, time 4 day
[11] = Toxicity in Swiss mouse infected with multidrug-resistant Plasmodium yoelii nigeriensis assessed as animal dead at 48 mg/kg, po for 4 days measured on day 28; type: organism-based; details: in vivo, 96 h, time 4 day
[12] = Toxicity in Swiss mouse infected with multidrug-resistant Plasmodium yoelii nigeriensis assessed as animal survival at 48 mg/kg, IM for 4 days measured on day 28; type: organism-based; details: in vivo, 96 h, time 4 day
[13] = system: Plasmodium yoelii nigeriensis; assay: Antimalarial activity against multidrug-resistant Plasmodium yoelii nigeriensis infected in Swiss mouse assessed as inhibition of parasitemia at 6 mg/kg, po for 4 days measured on day 4 relative to control; type: functional; details: 96 h, time 4 day
[14] = system: Plasmodium yoelii nigeriensis; assay: Antimalarial activity against multidrug-resistant Plasmodium yoelii nigeriensis infected in Swiss mouse assessed as inhibition of parasitemia at 3 mg/kg, IM for 4 days measured on day 4 relative to control; type: functional; details: 96 h, time 4 day
[15] = Toxicity in Swiss mouse infected with multidrug-resistant Plasmodium yoelii nigeriensis assessed as animal survival at 6 mg/kg, IM for 4 days measured on day 28; type: organism-based; details: in vivo, time 4 day
[16] = Toxicity in Swiss mouse infected with multidrug-resistant Plasmodium yoelii nigeriensis assessed as animal survival at 12 mg/kg, po for 4 days measured on day 28; type: organism-based; details: in vivo, 96 h, time 4 day
[17] = Toxicity in Swiss mouse infected with multidrug-resistant Plasmodium yoelii nigeriensis assessed as animal dead at 6 mg/kg, po for 4 days measured on day 28; type: organism-based; details: in vivo, 96 h, time 4 day
[18] = Toxicity in Swiss mouse infected with multidrug-resistant Plasmodium yoelii nigeriensis assessed as animal dead at 3 mg/kg, IM for 4 days measured on day 28; type: organism-based; details: in vivo, 96 h, time 4 day
[19] = Toxicity in Swiss mouse infected with multidrug-resistant Plasmodium yoelii nigeriensis assessed as animal survival at 24 mg/kg, IM for 4 days measured on day 28; type: organism-based; details: in vivo, time 4 day, read-out: Activity
[20] = system: Plasmodium yoelii nigeriensis; assay: Antimalarial activity against multidrug-resistant Plasmodium yoelii nigeriensis infected in Swiss mouse assessed as inhibition of parasitemia at 6 mg/kg, IM for 4 days measured on day 4 relative to control; type: functional; details: 96 h, time 4 day
[21] = Toxicity in Swiss mouse infected with multidrug-resistant Plasmodium yoelii nigeriensis assessed as animal dead at 24 mg/kg, po for 4 days measured on day 28; type: organism-based; details: in vivo, 96 h, time 4 day

Row | SMILES | inhibition in vivo at 24 mg/kg [1] [%] | inhibition in vivo at 12 mg/kg [2] [%] | survival at 96 h [5] [%] | other results
1 | C[C@@H]1CC[C@H]2[C@@H](C)C(=O)N(/N=C/c3cccc([N+](=O)[O-])c3)[C@@H]3O[C@@]4(C)CC[C@@H]1[C@@]23OO4 | 100 | 100 | – | Activity [3]: Toxic
2 | C[C@@H]1CC[C@H]2[C@@H](C)C(=O)N(/N=C/c3ccco3)[C@@H]3O[C@@]4(C)CC[C@@H]1[C@@]23OO4 | 100 | 100 | 80 | survival at 96 h ([4]; Swiss, read-out: Activity): 80%
3 | COc1ccc(/C=N/N2C(=O)[C@H](C)[C@@H]3CC[C@@H](C)[C@@H]4CC[C@@]5(C)OO[C@]43[C@H]2O5)cc1 | 100 | 100 | 60 | inhibition in vivo at 12 mg/kg [6]: 100%; Activity [4]: Non-Toxic; Activity [7]: Toxic
4 | C[C@@H]1CC[C@H]2[C@@H](C)C(=O)N(N=C3CCCCC3)[C@@H]3O[C@@]4(C)CC[C@@H]1[C@@]23OO4 | 100 | 100 | 40 | –
5 | C[C@@H]1CC[C@H]2[C@@H](C)C(=O)N(N=C3C4CC5CC(C4)CC3C5)[C@@H]3O[C@@]4(C)CC[C@@H]1[C@@]23OO4 | 100 | 100 | 20 | –
6 | C[C@@H]1CC[C@H]2[C@@H](C)C(=O)O[C@@H]3O[C@@]4(C)CC[C@@H]1[C@]32OO4 [ARTEMISININ] | – | – | – | inhibition in vivo at 48 mg/kg [8]: 100%; inhibition in vivo at 48 mg/kg [9]: 100%; inhibition in vivo at 24 mg/kg [10]: 100%; Activity [11]: Toxic; Activity [12]: Non-Toxic
7 | C[C@@H]1CC[C@H]2[C@@H](C)C(=O)N(/N=C/c3ccc(Br)cc3)[C@@H]3O[C@@]4(C)CC[C@@H]1[C@@]23OO4 | 100 | 100 | 60 | –
8 | CC(C)=NN1C(=O)[C@H](C)[C@@H]2CC[C@@H](C)[C@@H]3CC[C@@]4(C)OO[C@]32[C@H]1O4 | 100 | 100 | – | –
9 | C[C@@H]1CC[C@H]2[C@@H](C)C(=O)N(N=C3c4ccccc4-c4ccccc43)[C@@H]3O[C@@]4(C)CC[C@@H]1[C@@]23OO4 | 100 | 100 | – | inhibition in vivo at 12 mg/kg [6]: 100%; inhibition in vivo at 6 mg/kg [13]: 98%; inhibition in vivo at 3 mg/kg [14]: 38%; Activity ([15]; im, 6 mg/kg, 96 h): Non-Toxic; Activity [4]: Non-Toxic; Activity ([5]; im, 12 mg/kg, 96 h): Non-Toxic; Activity [16]: Non-Toxic; Activity [17]: Toxic; Activity [18]: Toxic
10 | C[C@@H]1CC[C@H]2[C@@H](C)C(=O)N(/N=C/c3ccccc3O)[C@@H]3O[C@@]4(C)CC[C@@H]1[C@@]23OO4 | 100 | 100 | 40 | –
11 | C[C@@H]1CC[C@H]2[C@@H](C)C(=O)N(/N=C/c3ccc[nH]3)[C@@H]3O[C@@]4(C)CC[C@@H]1[C@@]23OO4 | 100 | 100 | – | survival at 96 h [19]: 40%
12 | C[C@@H]1CC[C@H]2[C@@H](C)C(=O)N(N)[C@@H]3O[C@@]4(C)CC[C@@H]1[C@@]23OO4 | 100 | 100 | – | Activity [3]: Toxic
13 | C[C@@H]1CC[C@H]2[C@@H](C)C(=O)N(/N=C/c3cccs3)[C@@H]3O[C@@]4(C)CC[C@@H]1[C@@]23OO4 | 100 | 100 | – | inhibition in vivo at 12 mg/kg [6]: 100%
14 | C[C@@H]1CC[C@H]2[C@@H](C)C(=O)N(N=C3CCCC3)[C@@H]3O[C@@]4(C)CC[C@@H]1[C@@]23OO4 | 100 | 100 | – | inhibition in vivo at 6 mg/kg [20]: 100%; survival at 96 h ([15]; Swiss, read-out: Activity): 80%; Activity [21]: Toxic; Activity [4]: Non-Toxic
